The record followed here is patent US11512085B2, “Heteroaryl compound having drug activity” (SHANGHAI DUDE MEDICAL TECHNOLOGY CO., LTD, priority 2017, dated 2022).

Data set [1] has as its system OCI-LY10. Nature of the data set: In vitro tumor cell proliferation (CellTiter-Glo), OCI-LY10. The format is cell-based. The settings on record: Homo sapiens, OCI-Ly10, 72 h; read-out: Growth IC50. The procedure: Biological Embodiment 8: Study on Effects of Active Compounds for Inhibiting In Vitro Tumor Cell Proliferation
Promega CellTiter-Glo cell activity detection kit by luminescence (Promega-G7573).
Tumor cell lines were cultured in a 5% of CO2 incubator at 37° C. according to respective culture conditions; and periodic passage was performed, and cells positioned in a logarithmic phase were taken for planking.
3) 90 μL of cell suspension was added into each well of the culture plate, and a culture solution containing no cell was added into blank control;
4) the culture plate was cultured overnight in the 5% of CO2 incubator having relative humidity of 100% at 37° C.
Preparation of a 400× compound storage plate: the compound was diluted from the maximum concentration gradient to the lowest concentration with DMSO. […]
The following steps were performed according to the specification of the Promega CellTiter-Glo cell activity detection kit by luminescence (Promega-G7573). […]
9) the luminescence signal was detected on the 2104 EnVision plate reader.
(In general: ATP-based viability assays read luminescence as a measure of living cells.)

Data set [2] relates to p-PLCγ/t-PLCγ. Kind of data set: Western blotting of p-PLCγ/t-PLCγ in anti-IgG stimulated DOHH2 cells. In kind it is cell-based. The conditions noted are these: DOHH2 cells, 5, 100, 2000 nM, 1 h, anti-IgG stimulation. The procedure: Biological Embodiment 4: Analysis of Influences of Test Compounds on p-Btk/t-Btk, p-PLCγ/t-PLCγ and p-Erk/t-Erk Expression Levels of DOHH2 Cells by Virtue of Western Blotting
1) DOHH2 cells on a logarithmic phase were collected;
2) a cell concentration was adjusted to a needed concentration;
3) 2 ml of cell suspension was added into a 6-well plate for performing culture, three different concentrations, that is, 5 nM, 100 nM and 2000 nM, of test samples were respectively set, and each concentration was repeated once;
4) test samples were added into plate wells, and DMSO served as control, wherein a final concentration of the DMSO was 0.1%;
5) culture was performed for 1 h; and […]
6. protein extraction and quantification […]
5) a protein concentration was determined by using Pierce™ BCA Protein Assay Kit; and
6) according to BCA protein quantification results, all samples were diluted to the same final concentration by adding 4×LDS sample buffer and 10× sample reducing agent into the RIPA buffer solution, and the solution was heated at 100° C. for 10 min. […]
10) chemiluminiscence was detected by Tanon 5200 multi.
7. Quantification of strip intensity
Intensity of each strip was quantified by using Image quant densitometry software. […]

For data set [3], the system named is SD rats. Kind of data set: Single dose toxicity test in SD rats. In kind it is in vivo. The procedure: Biological Embodiment 6: Single Dose Toxicity Test
During the experiment, all the animals were subjected to detailed clinical observation once (2 hours after drug administration) on the Day 1 and once every day on Day 2-14; the animals were weighed on the day of animal grouping, on the day of drug administration (before drug administration), Day 4, 7, 10 and 13 after drug administration and on the day of dissection, and weights were recorded; food consumption per cage was weighed within 24 hours on Day 2, 6, 9 and 13 in the experiment and recorded; and all live animals were subjected to gross anatomy examination on Day 15.
1. Preparation of Test and Control Products
a solvent control group: 30 ml of solvents (0.5% MC (methylcellulose), 0.4% of cremophor EL and 0.1% of sodium lauryl sulfate) were sucked into a suitable container, the pH value was measured as 7, and a colorless clarified solution was obtained.
Compound 6 (400 mg/kg): 1507.1 mg of the compound 6 was weighed into a suitable container, solvents (0.5% MC (methylcellulose), 0.4% cremophor EL and 0.1% sodium lauryl sulfate) were added into the container to reach a constant volume of 30 ml, ultrasonic treatment was performed for 20 minutes, stirring was performed for 15 minutes, a mixing instrument was used for 5 minutes, the pH value was measured as 7, and white suspension was obtained.
Compound 6 (1000 mg/kg): 3765.5 mg of the compound 6 was weighed into a suitable container, solvents (0.5% MC (methylcellulose), 0.4% cremophor EL and 0.1% sodium lauryl sulfate) were added into the container to reach a constant volume of 30 ml, ultrasonic treatment was performed for 25 minutes, stirring was performed for 21 minutes, a mixing instrument was used for 5 minutes, the pH value was measured as 7, and white suspension was obtained. […]

As usually defined, the IC50 is the concentration at which inhibition is half-maximal. For `C=CC(=O)NN1CCCC(n2nc(-c3ccc(Oc4ccccc4)cc3)c3c(N)ncnc32)C1` (centres unmarked) [Embodiment 6, N-(3-(4-amino-3-(4-phenoxyphenyl)-1H-pyrazolo[3,4-D]pyrimidine-1-yl)-1-piperidyl)-acrylamide], the IC50 in data set [1] turned out to be 6 nM. In data set [2], the “relative level of p-PLCγ/t-PLCγ” value was “obviously decreased”. This molecule showed a Maximum tolerance dosage in data set [3] (SD rats, oral, once, 0, 400, 1000, 2000 mg/kg) of 2000 mg/kg. Besides, in data set [3] (rat, in vivo), the Gross anatomy result is “no abnormality” and the “Results (single dose toxicity)” value is “No animal died; all tissues”.
